In PubChem BioAssay AID256 (DTP/NCI, 2004):
Inconclusive results and toxic doses are left out. The calls were made as follows: active = survival T/C of 150% or more; inactive = T/C below 125% in these data.

System: CD2F1 mice, L1210 leukemia ip, survival T/C
Assay: NCI In Vivo Anticancer Drug Screen. Data for tumor model L1210 Leukemia (intraperitoneal) in CD2F1 (CDF1) mice
Conditions: higher = longer survival
Method in brief: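 Compound-dosed mice with transplantable tumor versus matched vehicle controls; endpoint ratio T/C reported.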

[1] = endpoint: mean survival time, dose: 100.0 mg/kg/injection, schedule: Q01DX009 (ip), vehicle: saline with Tween-80
[2] = endpoint: mean survival time, dose: 100.0 mg/kg/injection, schedule: Q04DX003 (ip), vehicle: saline with Tween-80
[3] = endpoint: mean survival time, dose: 200.0 mg/kg/injection, schedule: Q01DX009 (ip), vehicle: saline with Tween-80
[4] = endpoint: mean survival time, dose: 200.0 mg/kg/injection, schedule: Q04DX003 (ip), vehicle: saline with Tween-80
[5] = endpoint: mean survival time, dose: 400.0 mg/kg/injection, schedule: Q01DX009 (ip), vehicle: saline with Tween-80
[6] = endpoint: mean survival time, dose: 400.0 mg/kg/injection, schedule: Q04DX003 (ip), vehicle: saline with Tween-80
[7] = endpoint: mean survival time, dose: 100.0 mg/kg/injection, schedule: Q01DX001 (ip), vehicle: saline with Tween-80
[8] = endpoint: mean survival time, dose: 200.0 mg/kg/injection, schedule: Q01DX001 (ip), vehicle: saline with Tween-80
[9] = endpoint: mean survival time, dose: 50.0 mg/kg/injection, schedule: Q01DX009 (ip), vehicle: saline with Tween-80
[10] = endpoint: mean survival time, dose: 12.5 mg/kg/injection, schedule: Q01DX005 (ip), vehicle: water
[11] = endpoint: mean survival time, dose: 25.0 mg/kg/injection, schedule: Q01DX005 (ip), vehicle: water
[12] = endpoint: mean survival time, dose: 50.0 mg/kg/injection, schedule: Q01DX005 (ip), vehicle: water
[13] = endpoint: mean survival time, dose: 100.0 mg/kg/injection, schedule: Q01DX005 (ip), vehicle: water
[14] = endpoint: mean survival time, dose: 12.5 mg/kg/injection, schedule: Q01DX009 (ip), vehicle: saline
[15] = endpoint: mean survival time, dose: 25.0 mg/kg/injection, schedule: Q01DX009 (ip), vehicle: saline
[16] = endpoint: mean survival time, dose: 50.0 mg/kg/injection, schedule: Q01DX009 (ip), vehicle: saline

Measured: T/C

COc1ccc([Si](F)(c2ccc(OC)cc2)c2ccc(OC)cc2)cc1
inactive: [1] 100 % of control | [2] 95 % of control | [3] 94 % of control | [4] 93 % of control | [5] 93 % of control | [6] 90 % of control

O=C(O)CCCCCCCCC(=O)c1ccccc1
inactive: [2] 97 % of control | [4] 95 % of control | [6] 88 % of control

CN(Cc1cnc2nc(N)nc(N)c2n1)c1ccc(C(=O)NC(CCC(=O)O)C(=O)O)cc1Br (stereo not drawn)
inactive: endpoint: mean survival time, dose: 6.25 mg/kg/injection, schedule: Q01DX Z (ip), vehicle: saline 104 % of control

c1ccc(C2=NNC(c3ccccc3)=NN2)cc1
inactive: endpoint: mean survival time, dose: 100.0 mg/kg/injection, schedule: Q01DX001 (ip), vehicle: other 105 % of control | [7] 101 % of control | endpoint: mean survival time, dose: 200.0 mg/kg/injection, schedule: Q01DX001 (ip), vehicle: other 94 % of control | [8] 97 % of control | endpoint: mean survival time, dose: 400.0 mg/kg/injection, schedule: Q01DX001 (ip), vehicle: other 103 % of control | endpoint: mean survival time, dose: 400.0 mg/kg/injection, schedule: Q01DX001 (ip), vehicle: saline with Tween-80 103 % of control

CC(=O)OC(C)Cc1ccccc1 (stereo not drawn)
inactive: [9] 96 % of control | [1] 96 % of control | [3] 100 % of control

COc1ccc(N)cc1OC
inactive: endpoint: mean survival time, dose: 100.0 mg/kg/injection, schedule: Q01DX009 (ip), vehicle: saline 96 % of control | endpoint: mean survival time, dose: 200.0 mg/kg/injection, schedule: Q01DX009 (ip), vehicle: saline 102 % of control | endpoint: mean survival time, dose: 400.0 mg/kg/injection, schedule: Q01DX009 (ip), vehicle: saline 98 % of control

O=C1CSC1=C(c1ccccc1)c1ccccc1
inactive: endpoint: mean survival time, dose: 12.5 mg/kg/injection, schedule: Q04DX002 (ip), vehicle: saline with Tween-80 94 % of control | endpoint: mean survival time, dose: 25.0 mg/kg/injection, schedule: Q04DX002 (ip), vehicle: saline with Tween-80 94 % of control | endpoint: mean survival time, dose: 50.0 mg/kg/injection, schedule: Q04DX002 (ip), vehicle: saline with Tween-80 94 % of control

CCCC(=O)Nc1ncnc2c1nc(NC(=O)CCC)n2C1OC2COP(=O)(O)OC2C1OC(=O)CCC (stereo not drawn)
inactive: endpoint: mean survival time, dose: 6.25 mg/kg/injection, schedule: Q01DX005 (ip), vehicle: water 97 % of control | [10] 104 % of control | [11] 93 % of control | [12] 97 % of control | [13] 93 % of control

c1ccc(CNc2ncnc3[nH]ncc23)cc1
inactive: endpoint: mean survival time, dose: 1.12 mg/kg/injection, schedule: Q01DX Z (ip), vehicle: carboxymethylcellulose (CMC) 100 % of control | endpoint: mean survival time, dose: 2.25 mg/kg/injection, schedule: Q01DX Z (ip), vehicle: carboxymethylcellulose (CMC) 103 % of control | endpoint: mean survival time, dose: 4.5 mg/kg/injection, schedule: Q01DX Z (ip), vehicle: carboxymethylcellulose (CMC) 100 % of control | endpoint: mean survival time, dose: 9.0 mg/kg/injection, schedule: Q01DX Z (ip), vehicle: carboxymethylcellulose (CMC) 102 % of control

COC(=O)C1C=CCC=C1OC (stereo not drawn)
inactive: [1] 113 % of control | [3] 104 % of control | [5] 109 % of control

Nc1cccc2scnc12
inactive: [1] 104 % of control | [3] 96 % of control

CCCCN(C)CCNc1cc(C)nc(Nc2nc3ccc(Cl)cc3[nH]2)n1
inactive: endpoint: mean survival time, dose: 16.5 mg/kg/injection, schedule: Q01DX009 (ip), vehicle: saline with Tween-80 88 % of control | endpoint: mean survival time, dose: 25.0 mg/kg/injection, schedule: Q01DX009 (ip), vehicle: saline with Tween-80 97 % of control | endpoint: mean survival time, dose: 37.5 mg/kg/injection, schedule: Q01DX009 (ip), vehicle: saline with Tween-80 95 % of control | [9] 90 % of control | [7] 90 % of control | [8] 94 % of control

O=S(=O)(O)SCCN1CCCCC1
inactive: [14] 104 % of control | endpoint: mean survival time, dose: 12.5 mg/kg/injection, schedule: Q04DX003 (ip), vehicle: saline sonified 102 % of control | [15] 106 % of control | endpoint: mean survival time, dose: 25.0 mg/kg/injection, schedule: Q04DX003 (ip), vehicle: saline sonified 101 % of control | [16] 104 % of control | endpoint: mean survival time, dose: 50.0 mg/kg/injection, schedule: Q04DX003 (ip), vehicle: saline sonified 91 % of control

O=C(O)CCCCCc1ccccc1
inactive: [1] 96 % of control | [2] 102 % of control | [3] 95 % of control | [4] 91 % of control | [5] 101 % of control | [6] 101 % of control

Cn1c(=O)c2c(nc(N3CCOCC3)n2CCCNCC(O)c2cc(O)cc(O)c2)n(C)c1=O (stereo not drawn)
inactive: [10] 100 % of control | [11] 96 % of control | [12] 94 % of control | [13] 97 % of control | endpoint: mean survival time, dose: 200.0 mg/kg/injection, schedule: Q01DX005 (ip), vehicle: water 92 % of control

Nc1n[nH]c(=S)n1-c1ccccc1
inactive: endpoint: mean survival time, dose: 50.0 mg/kg/injection, schedule: Q01DX009 (ip), vehicle: acetone 98 % of control | endpoint: mean survival time, dose: 100.0 mg/kg/injection, schedule: Q01DX009 (ip), vehicle: acetone 93 % of control | endpoint: mean survival time, dose: 200.0 mg/kg/injection, schedule: Q01DX009 (ip), vehicle: acetone 98 % of control

O=S(=O)(c1ccccc1)c1ccc(Br)cc1
inactive: [1] 94 % of control | [3] 96 % of control | [5] 98 % of control

CC(=O)[c-]1[c-][c-][c-][c-]1.[Fe+2].[c-]1[c-][c-][cH-][c-]1
inactive: endpoint: mean survival time, dose: 200.0 mg/kg/injection, schedule: Q01DX001 (ip), vehicle: saline 102 % of control | endpoint: mean survival time, dose: 400.0 mg/kg/injection, schedule: Q01DX001 (ip), vehicle: saline 100 % of control

CC1(C(F)(F)F)CC(=O)NN1 (stereo not drawn)
inactive: [14] 95 % of control | [15] 97 % of control | [16] 97 % of control | [2] 97 % of control

CCOC(=O)Nc1cc(=O)c([N+](=O)[O-])c(NC(=O)OCC)[nH]1
inactive: endpoint: mean survival time, dose: 75.0 mg/kg/injection, schedule: Q04DX003 (ip), vehicle: saline 92 % of control | endpoint: mean survival time, dose: 150.0 mg/kg/injection, schedule: Q04DX003 (ip), vehicle: saline 97 % of control | endpoint: mean survival time, dose: 300.0 mg/kg/injection, schedule: Q04DX003 (ip), vehicle: saline 101 % of control

Cc1cc(=O)oc2cc(OC(=O)C(CCCCN)NC(=O)OCc3ccccc3)ccc12 (stereo not drawn)
inactive: endpoint: mean survival time, dose: 12.5 mg/kg/injection, schedule: Q01DX009 (ip), vehicle: other 107 % of control | endpoint: mean survival time, dose: 25.0 mg/kg/injection, schedule: Q01DX009 (ip), vehicle: other 106 % of control | endpoint: mean survival time, dose: 50.0 mg/kg/injection, schedule: Q01DX009 (ip), vehicle: other 107 % of control | endpoint: mean survival time, dose: 100.0 mg/kg/injection, schedule: Q01DX009 (ip), vehicle: other 101 % of control

O=C1OC(Cl)(c2cccc3ccccc23)c2ccccc21 (stereo not drawn)
inactive: endpoint: mean survival time, dose: 100.0 mg/kg/injection, schedule: Q04DX003 (ip), vehicle: Klucel (hydroxypropylcellulose) (HPC) 87 % of control | endpoint: mean survival time, dose: 200.0 mg/kg/injection, schedule: Q04DX003 (ip), vehicle: Klucel (hydroxypropylcellulose) (HPC) 87 % of control | endpoint: mean survival time, dose: 400.0 mg/kg/injection, schedule: Q04DX003 (ip), vehicle: Klucel (hydroxypropylcellulose) (HPC) 94 % of control

O=C1CCCCCC2=NC12 (stereo not drawn)
inactive: endpoint: median survival time, dose: 6.25 mg/kg/injection, schedule: Q01DX009 (ip), vehicle: Klucel (hydroxypropylcellulose) (HPC) 97 % of control | endpoint: median survival time, dose: 12.5 mg/kg/injection, schedule: Q01DX009 (ip), vehicle: Klucel (hydroxypropylcellulose) (HPC) 102 % of control | endpoint: median survival time, dose: 25.0 mg/kg/injection, schedule: Q01DX009 (ip), vehicle: Klucel (hydroxypropylcellulose) (HPC) 105 % of control | endpoint: median survival time, dose: 50.0 mg/kg/injection, schedule: Q01DX009 (ip), vehicle: Klucel (hydroxypropylcellulose) (HPC) 111 % of control
